Experimental data reported in patent US4252984A, “Phenol ethers” (Synthelabo, priority 1975, dated 1981).
Like-named read-outs stand apart in the source and are kept apart here.

How the values were obtained:
in vivo = conditions: mouse, mortality over 5 days, confidence limits: 95%
Experimental: Acute toxicity: The acute toxicity for oral and intravenous administration was evaluated for CD1 male mice of average weight 20 g. The mortality was recorded over a period of 5 days following the administration of the compounds.

β1 -adrenergic receptors = target: T1, β1 -adrenergic receptors (Rattus norvegicus, UniProt P18090); assay: Studies on isolated organs: antagonism of isoprenaline-induced tachycardia and increase in contractile force in isolated rat auricles (pA2); parameters: species or system rats; conditions: for Effect on inotropism, ratio of activity to that of metoprolol: isoprenaline contractile force; for Effect on inotropism, ratio of activity to that of metoprolol / Effect on chronotropism, ratio of activity to that of metoprolol: metoprolol = 1.0; for Kb / pA2, effect on chronotropism / pA2, effect on inotropism: 31° C.
T1 construct: from tissue; host or cells: isolated rat auricles (atria)

[1] = intravenous administration, read-out: LD50 intravenous administration
[2] = oral administration, read-out: LD50 oral administration
[3] = isoprenaline increase in contractile force, read-out: pA2, effect on inotropism (converted)
[4] = isoprenaline tachycardia, read-out: pA2, effect on chronotropism (converted)
[5] = isoprenaline increase in contractile force

T1 sequence (P18090 whole entry): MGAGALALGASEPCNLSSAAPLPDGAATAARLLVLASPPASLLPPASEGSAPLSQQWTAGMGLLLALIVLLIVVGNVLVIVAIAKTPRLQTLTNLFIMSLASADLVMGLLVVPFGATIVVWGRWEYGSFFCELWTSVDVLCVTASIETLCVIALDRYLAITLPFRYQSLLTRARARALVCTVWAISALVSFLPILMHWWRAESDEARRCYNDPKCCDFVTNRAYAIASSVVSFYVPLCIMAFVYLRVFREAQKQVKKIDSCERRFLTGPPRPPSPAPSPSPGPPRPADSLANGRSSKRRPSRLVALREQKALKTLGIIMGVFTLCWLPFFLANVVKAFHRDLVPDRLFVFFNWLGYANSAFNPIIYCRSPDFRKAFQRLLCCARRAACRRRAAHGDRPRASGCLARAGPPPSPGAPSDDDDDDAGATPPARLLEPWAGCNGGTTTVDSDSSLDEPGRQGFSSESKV

Row | Compound | Effect on inotropism, ratio of activity to that of metoprolol (β1 -adrenergic receptors) | Kb (β1 -adrenergic receptors; [3]) [nM] | pA2, effect on chronotropism (β1 -adrenergic receptors; isoprenaline tachycardia) | Effect on chronotropism, ratio of activity to that of metoprolol (β1 -adrenergic receptors; isoprenaline tachycardia) | Kb (β1 -adrenergic receptors; [4]) [nM] | pA2, effect on inotropism (β1 -adrenergic receptors; [5]) | LD50 at 120 h (in vivo; [1]) [mg/kg] | LD50 at 120 h (in vivo; [2]) [mg/kg]
1 | COCCc1ccc(OCC(O)CNC(C)C)cc1 (stereo not shown) [METOPROLOL, 1-[4-(2-methoxy-ethyl)-phenoxy]-3-isopropylamino-propan-2-ol, reference compound] | – | – | – | – | – | – | 62 | 1050
2 | CC(C)NCC(O)COc1ccc(OCCOCC2CC2)cc1 (stereo not shown) [SL D.177, 1-{4-[2-(cyclopropylmethoxy)-ethoxy]-phenoxy}-3-isopropylamino-propan-2-ol] | 1.1 | 10.7 | – | 2.8 | 8.13 | – | 76 | 610
3 | CC(C)(C)NCC(O)COc1ccc(OCCOCC2CC2)cc1 (stereo not shown) [SL D.178, 1-{4-[2-(Cyclopropylmethoxy)-ethoxy]-phenoxy}-3-t-butylamino-propan-2-ol] | 1.0 | 11 | – | 1.4 | 20 | – | 53 | 445
4 | CC(C)NCC(O)COc1ccc(CCOCC2CC2)cc1 (stereo not shown) [SL D.212, 1-{4-[2-(Cyclopropylmethoxy)ethyl]-phenoxy}-3-isopropylamino-propan-2-ol] | – | – | – | – | – | – | 37 | 944
5 | CC(C)NCC(O)COc1ccc(COCC2CC2)cc1 (stereo not shown) [SL D.224, 1-[4-(cyclopropylmethoxymethyl)-phenoxy]-3-isopropylamino-propan-2-ol] | – | – | – | – | – | – | 88 | 1400
6 | CC(C)NCC(O)COc1ccc(OCC2CC2)cc1 (stereo not shown) [SL D.230, 1-[4-(Cyclopropylmethoxy)-phenoxy]-3-isopropylamino-propan-2-ol] | 2.1 | 5.37 | – | 4.6 | 5.01 | – | 48 | 750
7 | CC(C)(C)NCC(O)COc1ccc(OCC2CC2)cc1 (stereo not shown) [SL D.231, 1-[4-(Cyclopropylmethoxy)-phenoxy]-3-t-butylamino-propan-2-ol] | 0.3 | 33.9 | – | 0.8 | 28.8 | – | 36 | 1200
8 | CC(C)NCC(O)COc1ccc(CCOCC2CCC2)cc1 (stereo not shown) [SL D.254, 1-{4-[2-(Cyclobutylmethoxy)-ethyl]-phenoxy}-3-isopropylamino-propan-2-ol] | – | – | – | – | – | – | 28 | 658
9 | CC(C)NCC(O)COc1ccc(CCOCC2CCCCC2)cc1 (stereo not shown) [SL D.268, 1-{4-[2-(Cyclohexylmethoxy)-ethyl]-phenoxy}-3-isopropylamino-propan-2-ol] | 0.03 | 398 | 6.84 | 0.2 | – | – | 35 | –
10 | CC(C)NCC(O)COc1ccc(CCOCC2CCCC2)cc1 (stereo not shown) [SL D.291] | 0.08 | 148 | 6.89 | 0.2 | – | – | 56 | –
11 | CC(C)NCC(O)COc1ccc(OCCCC2CC2)cc1 (stereo not shown) [SL D.311, 1-(4-Cyclopropylpropoxy-phenoxy)-3-isopropylamino-propan-2-ol] | 0.2 | 52.5 | – | 0.2 | 91.2 | – | 71 | –
12 | CC(CCc1ccccc1)NCC(O)COc1ccc(CCOCC2CCC2)cc1 (stereo not shown) [SL E.049] | 0.01 | 1230 | 5.11 | – | – | – | – | –
13 | CC(CCc1ccc(F)cc1)NCC(O)COc1ccc(CCOCC2CCC2)cc1 (stereo not shown) [SL E.059] | 0.02 | 692 | 5.54 | – | – | – | – | –
14 | COc1ccc(CCNCC(O)COc2ccc(CCOCC3CCC3)cc2)cc1OC (stereo not shown) [SL E.111] | 0.1 | 74.1 | 7.75 | 1.3 | – | – | – | –

More lines, main results first:

Row | Effect on inotropism, ratio of activity to that of metoprolol (β1 -adrenergic receptors) | Kb (β1 -adrenergic receptors; [3]) [nM] | pA2, effect on chronotropism (β1 -adrenergic receptors; isoprenaline tachycardia) | Effect on chronotropism, ratio of activity to that of metoprolol (β1 -adrenergic receptors; isoprenaline tachycardia) | Kb (β1 -adrenergic receptors; [4]) [nM] | pA2, effect on inotropism (β1 -adrenergic receptors; [5]) | Compound | LD50 at 120 h (in vivo; [1]) [mg/kg] | LD50 at 120 h (in vivo; [2]) [mg/kg]
15 | 0.09 | 132 | 7.11 | 0.3 | – | – | CC(C)NCC(O)COc1ccc(CCSCC2CCC2)cc1 (stereo not shown) [SL D.056, 1-[4-(2-Cyclobutylmethylthio-ethyl)-phenoxy]-3-isopropylamino-propan-2-ol] | – | –
16 | 0.8 | 14.8 | – | 1.3 | 17.4 | – | CC(C)NCC(O)COc1ccc(OCCSCC2CC2)cc1 (stereo not shown) [SL D.299, 1-[4-(2-Cyclopropylmethylthio-ethoxy)-phenoxy]-3-isopropylamino-propan-2-ol] | – | –
17 | 0.02 | 617 | 6.47 | 0.07 | – | – | CC(CC#N)NCC(O)COc1ccc(CCOCC2CCC2)cc1 (stereo not shown) [SL E.024, 1-[4-(2-Cyclobutylmethoxy-ethyl)-phenoxy]-3-(1-methyl-2-cyano-ethylamino)-propan-2-ol] | – | –
18 | 0.2 | – | – | 0.6 | 37.2 | 7.21 | CC(=O)NCCNCC(O)COc1ccc(CCOCC2CCC2)cc1 (stereo not shown) [SL E.025, 1-[4-(2-Cyclobutylmethoxy-ethyl)-phenoxy]-3-(2-acetylamino-ethylamino)-propan-2-ol] | – | –
19 | 1.0 | – | – | 1.9 | 11.7 | 7.94 | CC(C)NCC(O)COc1ccc(CCS(=O)(=O)CC2CCC2)cc1 (stereo not shown) [SL E.060, 1-[4-(2-Cyclobutylmethylsulphonyl-ethyl)phenoxy]-3-isopropylamino-propan-2-ol] | – | –
20 | 0.1 | 89.1 | 7.02 | 0.2 | – | – | CC(C)NCC(O)COc1ccc(CCCOCC2CCC2)cc1 (stereo not shown) [SL E.061] | – | –
21 | 0.4 | 30.2 | 7.44 | 0.6 | – | – | CC(C)NCC(O)COc1ccc(COCC2CCC2)cc1 (stereo not shown) [SL E.080] | – | –
22 | 2.2 | 5.13 | – | 4.1 | 5.62 | – | CC(C)NCC(O)COc1ccc(OCCOCC2CCC2)cc1 (stereo not shown) [SL E.096, 1-[4-(2-cyclobutylmethoxyethoxy)-phenoxy]-3-isopropylamino-propan-2-ol] | – | –
23 | 0.08 | 141 | – | 0.1 | 162 | – | CC(C)NCC(O)COc1ccc(OCCS(=O)(=O)CC2CC2)cc1 (stereo not shown) [SL E.155, 1-[4-(2-Cyclopropylmethylsulphonyl-ethoxy)phenoxy]-3-isopropylamino-propan-2-ol] | – | –
24 | 1.00 | 10.7 | – | 4.17 | 5.5 | – | CC(C)NCC(O)COc1ccc(OCCOCC2CCCC2)cc1 (stereo not shown) [SL E.203] | – | –
